PubChem BioAssay AID248 (DTP/NCI, 2004)
Toxic doses and inconclusive results are not listed. Rule as the data show it: active = T/C of 150% or more; inactive = T/C below 125%.

Tested on: L1210 leukemia ip in BDF1 mice, survival T/C
Experiment: NCI In Vivo Anticancer Drug Screen. Data for tumor model L1210 Leukemia (intraperitoneal) in B6D2F1 (BDF1) mice
Details: endpoint: mean survival time, higher = longer survival
In short: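 Tumor was transplanted into mice, which were then dosed with test compound or vehicle alone. Survival was recorded for each group, and the treated figure was expressed relative to the control figure.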

[1] = dose: 100.0 mg/kg/injection, schedule: Q04DX002 (ip), vehicle: saline
[2] = dose: 200.0 mg/kg/injection, schedule: Q04DX002 (ip), vehicle: saline
[3] = dose: 100.0 mg/kg/injection, schedule: Q04DX003 (ip), vehicle: saline
[4] = dose: 100.0 mg/kg/injection, schedule: Q01DX001 (ip), vehicle: carboxymethylcellulose (CMC)
[5] = dose: 200.0 mg/kg/injection, schedule: Q01DX001 (ip), vehicle: carboxymethylcellulose (CMC)
[6] = dose: 400.0 mg/kg/injection, schedule: Q01DX001 (ip), vehicle: carboxymethylcellulose (CMC)
[7] = dose: 100.0 mg/kg/injection, schedule: Q04DX003 (ip), vehicle: saline with Tween-80
[8] = dose: 200.0 mg/kg/injection, schedule: Q04DX003 (ip), vehicle: saline with Tween-80
[9] = dose: 400.0 mg/kg/injection, schedule: Q04DX003 (ip), vehicle: saline with Tween-80
[10] = dose: 50.0 mg/kg/injection, schedule: Q01DX001 (ip), vehicle: saline
[11] = dose: 100.0 mg/kg/injection, schedule: Q01DX001 (ip), vehicle: saline
[12] = dose: 200.0 mg/kg/injection, schedule: Q01DX001 (ip), vehicle: saline
[13] = dose: 100.0 mg/kg/injection, schedule: Q04DX003 (ip), vehicle: Klucel (hydroxypropylcellulose) (HPC)
[14] = dose: 200.0 mg/kg/injection, schedule: Q04DX003 (ip), vehicle: Klucel (hydroxypropylcellulose) (HPC)
[15] = dose: 400.0 mg/kg/injection, schedule: Q04DX003 (ip), vehicle: Klucel (hydroxypropylcellulose) (HPC)
[16] = dose: 100.0 mg/kg/injection, schedule: Q01DX009 (ip), vehicle: Klucel (hydroxypropylcellulose) (HPC)

Measured: T/C

C=CS(=O)(=O)CCN(C)C
inactive: [1] 94 % of control | [2] 90 % of control | dose: 400.0 mg/kg/injection, schedule: Q04DX002 (ip), vehicle: saline 94 % of control

CC1(Br)OC(=O)C(C)(Br)OC1=O (stereo not drawn)
inactive: [3] 96 % of control | dose: 200.0 mg/kg/injection, schedule: Q04DX003 (ip), vehicle: saline 96 % of control

OC1c2cc(Br)ccc2-c2c(F)cc(Br)cc21 (stereo not drawn)
inactive: [4] 100 % of control | [5] 109 % of control | [6] 103 % of control

Cc1ccc(S(=O)(=O)OC/C(=C(/c2ccccc2)c2ccc(Cl)cc2)c2ccccc2)cc1
inactive: dose: 6.25 mg/kg/injection, schedule: Q04DX003 (ip), vehicle: saline with Tween-80 96 % of control | dose: 12.5 mg/kg/injection, schedule: Q04DX003 (ip), vehicle: saline with Tween-80 98 % of control | dose: 25.0 mg/kg/injection, schedule: Q04DX003 (ip), vehicle: saline with Tween-80 95 % of control

CC12CCC3C(CCC4=CC(=O)CCC43C)C1CCCN2 (stereo not drawn)
inactive: dose: 75.0 mg/kg/injection, schedule: Q01DX001 (sc), vehicle: steriod suspending solution 93 % of control | dose: 150.0 mg/kg/injection, schedule: Q01DX001 (sc), vehicle: steriod suspending solution 90 % of control

O=c1[nH]c2ccc(I)cc2c(=O)o1
inactive: dose: 100.0 mg/kg/injection, schedule: Q01DX009 (ip), vehicle: saline with Tween-80 100 % of control | dose: 200.0 mg/kg/injection, schedule: Q01DX009 (ip), vehicle: saline with Tween-80 100 % of control | dose: 400.0 mg/kg/injection, schedule: Q01DX009 (ip), vehicle: saline with Tween-80 101 % of control

CCC(C)C(CCCN1CCOCC1)(CNC(=O)CN(CC)CC)c1cccc2ccccc12 (stereo not drawn)
inactive: dose: 25.0 mg/kg/injection, schedule: Q01DX009 (ip), vehicle: saline 94 % of control | dose: 50.0 mg/kg/injection, schedule: Q01DX009 (ip), vehicle: saline 97 % of control | dose: 100.0 mg/kg/injection, schedule: Q01DX009 (ip), vehicle: saline 91 % of control | [3] 102 % of control

COC(=O)C(C(=O)OC)C(Br)(OC(C)=O)OC(C)=O
inactive: [7] 98 % of control | [8] 100 % of control | [9] 106 % of control

CCC(C)C(C)CO (stereo not drawn)
inactive: [10] 108 % of control | [11] 100 % of control | [12] 88 % of control

CCCCCC(=O)Nc1cccc(O)c1
inactive: [7] 92 % of control | [8] 98 % of control

ClCc1ccccc1CCc1ccccc1CCl
inactive: [13] 105 % of control | [14] 94 % of control | [15] 105 % of control

CCOC(=O)c1cnc(SC)nc1Nc1ccc(F)cc1
inactive: [13] 88 % of control | [14] 100 % of control | [15] 95 % of control

O=c1[nH]cnc2ncccc12
inactive: [11] 106 % of control | [12] 104 % of control

O=C(NCC(O)CNC(=O)Nc1ccc(C2=NCC(O)CN2)cc1)Nc1ccc(C2=NCC(O)CN2)cc1 (stereo not drawn)
inactive: dose: 25.0 mg/kg/injection, schedule: Q01DX Z (ip), vehicle: carboxymethylcellulose (CMC) 100 % of control | dose: 50.0 mg/kg/injection, schedule: Q01DX Z (ip), vehicle: carboxymethylcellulose (CMC) 108 % of control | dose: 100.0 mg/kg/injection, schedule: Q01DX Z (ip), vehicle: carboxymethylcellulose (CMC) 121 % of control

NC(=O)C1C2C=CC(CC2)C1C(N)=O (stereo not drawn)
inactive: [7] 91 % of control | [8] 96 % of control | [9] 91 % of control

CCCCC(CSC#N)SC#N (stereo not drawn)
inactive: dose: 3.13 mg/kg/injection, schedule: Q01DX009 (ip), vehicle: saline with Tween-80 94 % of control | dose: 6.25 mg/kg/injection, schedule: Q01DX009 (ip), vehicle: saline with Tween-80 94 % of control | dose: 12.5 mg/kg/injection, schedule: Q01DX009 (ip), vehicle: saline with Tween-80 94 % of control

COc1cc(C)c(C(=O)c2ccccc2N)cc1OC
inactive: [4] 105 % of control | [5] 118 % of control | [6] 96 % of control

CCCC(CCC)NCCOC(=O)C(CC)c1ccccc1 (stereo not drawn)
inactive: dose: 75.0 mg/kg/injection, schedule: Q01DX001 (ip), vehicle: saline 94 % of control

NC(N)=NC(N)=Nc1ccccc1Br
inactive: dose: 50.0 mg/kg/injection, schedule: Q01DX009 (ip), vehicle: Klucel (hydroxypropylcellulose) (HPC) 106 % of control | [16] 104 % of control | dose: 100.0 mg/kg/injection, schedule: Q04DX002 (ip), vehicle: Klucel (hydroxypropylcellulose) (HPC) 107 % of control | [13] 98 % of control | dose: 200.0 mg/kg/injection, schedule: Q04DX002 (ip), vehicle: Klucel (hydroxypropylcellulose) (HPC) 104 % of control | [14] 110 % of control

Clc1ccccc1Br
inactive: dose: 100.0 mg/kg/injection, schedule: Q01DX007 (ip), vehicle: saline with Tween-80 104 % of control | [7] 95 % of control | dose: 200.0 mg/kg/injection, schedule: Q01DX007 (ip), vehicle: saline with Tween-80 98 % of control | [8] 96 % of control | dose: 400.0 mg/kg/injection, schedule: Q01DX007 (ip), vehicle: saline with Tween-80 96 % of control | [9] 98 % of control

CCCCC(C(=O)O)c1ccccc1 (stereo not drawn)
inactive: dose: 100.0 mg/kg/injection, schedule: Q04DX003 (ip), vehicle: saline sonified 100 % of control | dose: 200.0 mg/kg/injection, schedule: Q04DX003 (ip), vehicle: saline sonified 97 % of control | dose: 400.0 mg/kg/injection, schedule: Q04DX003 (ip), vehicle: saline sonified 100 % of control

CC1(C)Oc2[nH]c(=O)n(-c3ccccc3)c(=O)c2C1c1ccc(Cl)cc1 (stereo not drawn)
inactive: dose: 12.5 mg/kg/injection, schedule: Q01DX001 (ip), vehicle: saline 94 % of control | dose: 12.5 mg/kg/injection, schedule: Q04DX003 (ip), vehicle: acetone 103 % of control | dose: 25.0 mg/kg/injection, schedule: Q01DX001 (ip), vehicle: saline 97 % of control | dose: 25.0 mg/kg/injection, schedule: Q04DX003 (ip), vehicle: acetone 86 % of control | dose: 35.0 mg/kg/injection, schedule: Q01DX009 (ip), vehicle: saline 94 % of control | [10] 92 % of control | dose: 55.0 mg/kg/injection, schedule: Q01DX009 (ip), vehicle: saline 96 % of control | dose: 80.0 mg/kg/injection, schedule: Q01DX009 (ip), vehicle: saline 106 % of control

COC(=O)c1ccc[n+](C)c1
inactive: [1] 104 % of control | [2] 101 % of control

CSc1ncnc2c1ncn2/N=C/c1ccccc1
inactive: [4] 96 % of control | [5] 95 % of control | [6] 96 % of control

N#CC1c2ccccc2CCN1C(=O)c1ccccc1 (stereo not drawn)
inactive: [4] 98 % of control | [5] 98 % of control | [6] 93 % of control

CCCCCCCCCCCCCCCCCC(=O)N/N=C/c1cc(C(C)(C)C)c(O)c(C(C)(C)C)c1
inactive: dose: 100.0 mg/kg/injection, schedule: Q01DX009 (ip), vehicle: other 90 % of control | dose: 200.0 mg/kg/injection, schedule: Q01DX009 (ip), vehicle: other 88 % of control | dose: 400.0 mg/kg/injection, schedule: Q01DX009 (ip), vehicle: other 96 % of control

C/C=C1\C(=O)O[C@@]23C=C[C@H]4C(C(=O)OC)=CO[C@@H](O[C@H]12)[C@H]43
inactive: dose: 5.0 mg/kg/injection, schedule: Q01DX001 (ip), vehicle: saline 103 % of control | dose: 10.0 mg/kg/injection, schedule: Q01DX001 (ip), vehicle: saline 103 % of control | dose: 20.0 mg/kg/injection, schedule: Q01DX001 (ip), vehicle: saline 106 % of control | dose: 40.0 mg/kg/injection, schedule: Q01DX001 (ip), vehicle: saline 103 % of control

CCCc1nc2ccccc2c(=O)n1/N=C/c1ccccc1O
inactive: [16] 97 % of control | dose: 200.0 mg/kg/injection, schedule: Q01DX009 (ip), vehicle: Klucel (hydroxypropylcellulose) (HPC) 102 % of control | dose: 400.0 mg/kg/injection, schedule: Q01DX009 (ip), vehicle: Klucel (hydroxypropylcellulose) (HPC) 103 % of control

NC(=NC(=O)c1ccccc1)N[N+](=O)[O-]
inactive: dose: 100.0 mg/kg/injection, schedule: Q04DX002 (ip), vehicle: gum acacia 104 % of control | dose: 200.0 mg/kg/injection, schedule: Q04DX002 (ip), vehicle: gum acacia 107 % of control | dose: 400.0 mg/kg/injection, schedule: Q04DX002 (ip), vehicle: gum acacia 104 % of control
